From ChEMBL document CHEMBL4706498, “Rosuvastatin based novel 3-substituted isocoumarins / 3-alkylidenephthalides: Ultrasound assisted synthesis and identification of new anticancer agents” (Eur J Med Chem, 2020)
Active and inactive are the calls of the source. No cut-off for these calls is given here.

Test system: HCT-116
Assay: Cytotoxicity against human HCT-116 cells assessed as inhibition of cell growth at 10 uM measured after 24 hrs by MTT assay (reference value: 0.17%)
Assay type: functional
Conditions: not given

SMILES	inhibition at 10 µM [%]
CC(C)c1nc(N(C)S(C)(=O)=O)nc(-c2ccc(F)cc2)c1COCc1cc2ccc(F)cc2c(=O)o1	36.9
CC(C)c1nc(N(C)S(C)(=O)=O)nc(-c2ccc(F)cc2)c1COC/C=C1\OC(=O)c2cc(Cl)ccc21	24.7
CC(C)c1nc(N(C)S(C)(=O)=O)nc(-c2ccc(F)cc2)c1COC/C=C1\OC(=O)c2cc(F)ccc21	18.3
COc1cc2cc(COCc3c(-c4ccc(F)cc4)nc(N(C)S(C)(=O)=O)nc3C(C)C)oc(=O)c2cc1OC	65.6
CC(C)c1nc(N(C)S(C)(=O)=O)nc(-c2ccc(F)cc2)c1COCc1cc2ccc(Br)cc2c(=O)o1	21.7
CC(C)c1nc(N(C)S(C)(=O)=O)nc(-c2ccc(F)cc2)c1COC/C=C1\OC(=O)c2cc(Br)ccc21	13.6

Test system: HepG2
Assay: Cytotoxicity against human HepG2 cells assessed as inhibition of cell growth at 10 uM measured after 24 hrs by MTT assay (reference value: 0.21%)
Assay type: functional
Conditions: not given

SMILES	inhibition at 10 µM [%]
CC(C)c1nc(N(C)S(C)(=O)=O)nc(-c2ccc(F)cc2)c1COCc1cc2ccc(F)cc2c(=O)o1	33.2
CC(C)c1nc(N(C)S(C)(=O)=O)nc(-c2ccc(F)cc2)c1COC/C=C1\OC(=O)c2cc(Cl)ccc21	21.3
CC(C)c1nc(N(C)S(C)(=O)=O)nc(-c2ccc(F)cc2)c1COC/C=C1\OC(=O)c2cc(F)ccc21	26.7
COc1cc2cc(COCc3c(-c4ccc(F)cc4)nc(N(C)S(C)(=O)=O)nc3C(C)C)oc(=O)c2cc1OC	48.7
CC(C)c1nc(N(C)S(C)(=O)=O)nc(-c2ccc(F)cc2)c1COCc1cc2ccc(Br)cc2c(=O)o1	23.5
CC(C)c1nc(N(C)S(C)(=O)=O)nc(-c2ccc(F)cc2)c1COC/C=C1\OC(=O)c2cc(Br)ccc21	20.4

Test system: PA-1
Assay: Cytotoxicity against human PA-1 cells assessed as inhibition of cell growth at 10 uM measured after 24 hrs by MTT assay (reference value: 0.19%)
Assay type: functional
Conditions: not given

SMILES	inhibition at 10 µM [%]
CC(C)c1nc(N(C)S(C)(=O)=O)nc(-c2ccc(F)cc2)c1COCc1cc2ccc(F)cc2c(=O)o1	28.9
CC(C)c1nc(N(C)S(C)(=O)=O)nc(-c2ccc(F)cc2)c1COC/C=C1\OC(=O)c2cc(Cl)ccc21	27
CC(C)c1nc(N(C)S(C)(=O)=O)nc(-c2ccc(F)cc2)c1COC/C=C1\OC(=O)c2cc(F)ccc21	18.9
COc1cc2cc(COCc3c(-c4ccc(F)cc4)nc(N(C)S(C)(=O)=O)nc3C(C)C)oc(=O)c2cc1OC	68.4
CC(C)c1nc(N(C)S(C)(=O)=O)nc(-c2ccc(F)cc2)c1COCc1cc2ccc(Br)cc2c(=O)o1	18.7
CC(C)c1nc(N(C)S(C)(=O)=O)nc(-c2ccc(F)cc2)c1COC/C=C1\OC(=O)c2cc(Br)ccc21	21.8

Test system: not listed separately
Assay: Cytotoxicity against human HEK cells assessed as inhibition of cell growth at 10 uM measured after 24 hrs by MTT assay (reference value: 0.11%)
Assay type: cell-based
Conditions: not given

SMILES	inhibition at 24 h, 10 µM [%]
CC(C)c1nc(N(C)S(C)(=O)=O)nc(-c2ccc(F)cc2)c1COCc1cc2ccc(F)cc2c(=O)o1	3.1
CC(C)c1nc(N(C)S(C)(=O)=O)nc(-c2ccc(F)cc2)c1COC/C=C1\OC(=O)c2cc(Cl)ccc21	2.9
CC(C)c1nc(N(C)S(C)(=O)=O)nc(-c2ccc(F)cc2)c1COC/C=C1\OC(=O)c2cc(F)ccc21	3.1
COc1cc2cc(COCc3c(-c4ccc(F)cc4)nc(N(C)S(C)(=O)=O)nc3C(C)C)oc(=O)c2cc1OC	4.9
CC(C)c1nc(N(C)S(C)(=O)=O)nc(-c2ccc(F)cc2)c1COCc1cc2ccc(Br)cc2c(=O)o1	2.8
CC(C)c1nc(N(C)S(C)(=O)=O)nc(-c2ccc(F)cc2)c1COC/C=C1\OC(=O)c2cc(Br)ccc21	1.9

Test system: HCT-116
Assay: Cytotoxicity against human HCT-116 cells assessed as inhibition of cell growth measured after 24 hrs by MTT assay
Assay type: functional, cell-based
Conditions: HCT-116, 24 h

SMILES	IC50 [nM]
COc1cc2cc(COCc3c(-c4ccc(F)cc4)nc(N(C)S(C)(=O)=O)nc3C(C)C)oc(=O)c2cc1OC	4.51

Test system: PA-1
Assay: Cytotoxicity against human PA-1 cells assessed as inhibition of cell growth measured after 24 hrs by MTT assay
Assay type: functional, cell-based
Conditions: PA-1, 24 h

SMILES	IC50 [nM]
COc1cc2cc(COCc3c(-c4ccc(F)cc4)nc(N(C)S(C)(=O)=O)nc3C(C)C)oc(=O)c2cc1OC	0.76

Test system: PANC-1
Assay: Inhibition of human Akt in human PANC-1 cells assessed as inhibition of Akt phosphorylation at 50 uM measured after 18 hrs by Western blot assay
Assay type: cell-based
Conditions: not given

SMILES	inhibition
COc1cc2cc(COCc3c(-c4ccc(F)cc4)nc(N(C)S(C)(=O)=O)nc3C(C)C)oc(=O)c2cc1OC	Active

Test system: PANC-1
Assay: Inhibition of human Akt in human PANC-1 cells assessed as cell growth arrest at 50 uM measured after 18 hrs by Western blot assay
Assay type: cell-based
Conditions: not given

SMILES	inhibition
COc1cc2cc(COCc3c(-c4ccc(F)cc4)nc(N(C)S(C)(=O)=O)nc3C(C)C)oc(=O)c2cc1OC	Active

Test system: PANC-1
Assay: Cytotoxicity against human PANC-1 cells assessed as decrease in cell viability at 50 uM measured after 18 hrs by MTT assay
Assay type: functional, cell-based
Conditions: not given

SMILES	inhibition
COc1cc2cc(COCc3c(-c4ccc(F)cc4)nc(N(C)S(C)(=O)=O)nc3C(C)C)oc(=O)c2cc1OC	Active

Target: not listed separately
Assay: Inhibition of Protein kinase A (unknown origin)
Design: species or system Homo sapiens
Conditions: not given

SMILES	IC50 [nM]
COc1cc2cc(COCc3c(-c4ccc(F)cc4)nc(N(C)S(C)(=O)=O)nc3C(C)C)oc(=O)c2cc1OC	> 10000

Test system: not listed separately
Assay: Stability of compound assessed as parent compound remaining after 60 mins in rat liver microsomes
Assay type: ADME, Microsome
Conditions: read-out: Stabilty

SMILES	remaining at 1 h [%]
COc1cc2cc(COCc3c(-c4ccc(F)cc4)nc(N(C)S(C)(=O)=O)nc3C(C)C)oc(=O)c2cc1OC	47.2

Test system: not listed separately
Assay: Microsomal stability in rat liver microsomes assessed as half life
Assay type: ADME, Microsome
Conditions: not given

SMILES	half-life [h]
COc1cc2cc(COCc3c(-c4ccc(F)cc4)nc(N(C)S(C)(=O)=O)nc3C(C)C)oc(=O)c2cc1OC	1.83

Test system: not listed separately
Assay: Microsomal stability in rat liver microsomes assessed as intrinsic clearance
Assay type: ADME, Microsome
Conditions: read-out: CLH

SMILES	microsomal CLint [µL/min/mg]
COc1cc2cc(COCc3c(-c4ccc(F)cc4)nc(N(C)S(C)(=O)=O)nc3C(C)C)oc(=O)c2cc1OC	26.3

Test system: not listed separately
Assay: Toxicity in zebra fish embryo measured 5 days post fertilization by measuring teratogenicity at 1 to 100 uM
Design: species or system Danio rerio
Conditions: zebrafish, 120 h, dose 1-100 µM, time 5 day

SMILES	Activity
COc1cc2cc(COCc3c(-c4ccc(F)cc4)nc(N(C)S(C)(=O)=O)nc3C(C)C)oc(=O)c2cc1OC	Non-Toxic

Test system: not listed separately
Assay: Hepatotoxicity in 4 days post fertilize zebra fish embryo measured 7 days post fertilization at 1 to 100 uM
Assay type: toxicity, Danio rerio
Conditions: zebrafish, dose 1-100 µM

SMILES	Activity
COc1cc2cc(COCc3c(-c4ccc(F)cc4)nc(N(C)S(C)(=O)=O)nc3C(C)C)oc(=O)c2cc1OC	Non-Toxic

Test system: not listed separately
Assay: Toxicity in 7 days post fertilize zebrafish embryo assessed as morphological abnormalities or atrioventricular blocks measured after 24 hrs by bright field microscopic analysis
Design: species or system Danio rerio
Conditions: in vivo, dose 1-100 µM

SMILES	Activity
COc1cc2cc(COCc3c(-c4ccc(F)cc4)nc(N(C)S(C)(=O)=O)nc3C(C)C)oc(=O)c2cc1OC	Non-Toxic

Test system: not listed separately
Assay: Toxicity in 7 days post fertilize zebrafish embryo assessed as death at 1 to 100 uM after 24 hrs
Design: species or system Danio rerio
Conditions: in vivo, dose 1-100 µM

SMILES	Activity
COc1cc2cc(COCc3c(-c4ccc(F)cc4)nc(N(C)S(C)(=O)=O)nc3C(C)C)oc(=O)c2cc1OC	Non-Toxic

Test system: not listed separately
Assay: Toxicity in 7 days post fertilize zebrafish embryo assessed as morphological abnormalities at 1 to 100 uM after 24 hrs
Design: species or system Danio rerio
Conditions: in vivo, dose 1-100 µM

SMILES	Activity
COc1cc2cc(COCc3c(-c4ccc(F)cc4)nc(N(C)S(C)(=O)=O)nc3C(C)C)oc(=O)c2cc1OC	Non-Toxic

Target: T1, RAC-alpha serine/threonine-protein kinase (Homo sapiens, UniProt P31749)
Assay: Binding affinity to Akt1 (unknown origin)
Conditions: not given

T1 sequence (P31749 whole entry): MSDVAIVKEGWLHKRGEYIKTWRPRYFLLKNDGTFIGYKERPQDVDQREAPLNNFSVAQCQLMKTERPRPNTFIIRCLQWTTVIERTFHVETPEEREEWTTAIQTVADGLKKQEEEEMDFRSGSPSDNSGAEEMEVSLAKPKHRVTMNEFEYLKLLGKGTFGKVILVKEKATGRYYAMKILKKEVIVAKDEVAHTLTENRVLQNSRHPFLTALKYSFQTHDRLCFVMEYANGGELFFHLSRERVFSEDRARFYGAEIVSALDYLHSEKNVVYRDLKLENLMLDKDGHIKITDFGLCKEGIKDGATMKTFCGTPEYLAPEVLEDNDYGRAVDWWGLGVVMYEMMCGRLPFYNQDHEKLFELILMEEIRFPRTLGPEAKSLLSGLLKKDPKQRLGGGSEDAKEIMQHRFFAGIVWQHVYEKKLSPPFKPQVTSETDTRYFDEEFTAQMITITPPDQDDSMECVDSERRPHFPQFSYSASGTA

SMILES	Activity [kcal/mol]
COc1cc2cc(COCc3c(-c4ccc(F)cc4)nc(N(C)S(C)(=O)=O)nc3C(C)C)oc(=O)c2cc1OC	-11.3

Target: RAC-beta serine/threonine-protein kinase (Homo sapiens) (UniProt P31751)
Assay: Binding affinity to Akt2 (unknown origin)
Conditions: not given

Sequence of RAC-beta serine/threonine-protein kinase (Homo sapiens) (P31751 whole entry): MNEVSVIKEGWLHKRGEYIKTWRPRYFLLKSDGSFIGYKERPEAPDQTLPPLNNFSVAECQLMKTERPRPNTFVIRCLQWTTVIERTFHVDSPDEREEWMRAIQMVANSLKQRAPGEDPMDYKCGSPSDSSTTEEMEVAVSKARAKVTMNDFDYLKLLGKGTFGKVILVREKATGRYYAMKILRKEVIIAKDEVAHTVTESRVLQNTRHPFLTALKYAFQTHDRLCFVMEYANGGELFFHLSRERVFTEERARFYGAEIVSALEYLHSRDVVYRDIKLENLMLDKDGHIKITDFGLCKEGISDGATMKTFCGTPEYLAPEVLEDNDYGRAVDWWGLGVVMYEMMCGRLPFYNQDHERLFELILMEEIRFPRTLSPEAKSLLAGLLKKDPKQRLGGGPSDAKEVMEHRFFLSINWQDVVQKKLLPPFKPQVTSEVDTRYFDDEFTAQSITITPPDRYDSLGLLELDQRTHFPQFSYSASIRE

SMILES	Activity [kcal/mol]
COc1cc2cc(COCc3c(-c4ccc(F)cc4)nc(N(C)S(C)(=O)=O)nc3C(C)C)oc(=O)c2cc1OC	-10.6

Target: T1, RAC-alpha serine/threonine-protein kinase
Conditions: not given

SMILES	IC50 [nM]
COc1cc2cc(COCc3c(-c4ccc(F)cc4)nc(N(C)S(C)(=O)=O)nc3C(C)C)oc(=O)c2cc1OC	4300
